Data published in US10758534B2 (Vertex Pharmaceuticals Incorporated, priority 2014, dated 2020).

molecular target: T1, F508del (Homo sapiens, UniProt P13569, DEL508-508); assay: Protocol 1: membrane potential optical assay (FLIPR III, voltage sensing dye), identification of potentiator compounds; assay type: cell-based; details: Table 3, compounds of Table 1
T1 construct: expressed in transfected cells
From the text: Membrane Potential Optical Methods for Assaying F508del Modulation Properties of Compounds
The assay utilizes fluorescent voltage sensing dyes to measure changes in membrane potential using a fluorescent plate reader (e.g., FLIPR III, Molecular Devices, Inc.) as a readout for increase in functional F508del in NIH 3T3 cells. The driving force for the response is the creation of a chloride ion gradient in conjunction with channel activation by a single liquid addition step after the cells have previously been treated with compounds and subsequently loaded with a voltage sensing dye.
Identification of Potentiator Compounds
To identify potentiators of F508del, a double-addition HTS assay format was developed. This HTS assay utilizes fluorescent voltage sensing dyes to measure changes in membrane potential on the FLIPR III as a measurement for increase in gating (conductance) of F508del in temperature-corrected F508del NIH 3T3 cells. The driving force for the response is a Cl^− ion gradient in conjunction with channel activation with forskolin in a single liquid addition step using a fluorescent plate reader such as FLIPR III after the cells have previously been treated with potentiator compounds (or DMSO vehicle control) and subsequently loaded with a redistribution dye.
Bath Solution #1: (in mM) NaCl 160, KCl 4.5, CaCl2 2, MgCl2 1, HEPES 10, pH 7.4 with NaOH.
Chloride-free bath solution: Chloride salts in Bath Solution #1 (above) are substituted with gluconate salts.
NIH3T3 mouse fibroblasts stably expressing F508del are used for optical measurements of membrane potential. The cells are maintained at 37° C. in 5% CO2 and 90% humidity in Dulbecco's modified Eagle's medium supplemented with 2 mM glutamine, 10% fetal bovine serum, 1×NEAA, β-ME, 1× pen/strep, and 25 mM HEPES in 175 cm^2 culture flasks. For all optical assays, the cells were seeded at ˜20,000/well in 384-well matrigel-coated plates and cultured for 2 hrs at 37° C. before culturing at 27° C. for 24 hrs. for the potentiator assay. For the correction assays, the cells are cultured at 27° C. or 37° C. with and without compounds for 16-24 hours.

T1 sequence (P13569 with tags, fused parts or gaps DEL508-508): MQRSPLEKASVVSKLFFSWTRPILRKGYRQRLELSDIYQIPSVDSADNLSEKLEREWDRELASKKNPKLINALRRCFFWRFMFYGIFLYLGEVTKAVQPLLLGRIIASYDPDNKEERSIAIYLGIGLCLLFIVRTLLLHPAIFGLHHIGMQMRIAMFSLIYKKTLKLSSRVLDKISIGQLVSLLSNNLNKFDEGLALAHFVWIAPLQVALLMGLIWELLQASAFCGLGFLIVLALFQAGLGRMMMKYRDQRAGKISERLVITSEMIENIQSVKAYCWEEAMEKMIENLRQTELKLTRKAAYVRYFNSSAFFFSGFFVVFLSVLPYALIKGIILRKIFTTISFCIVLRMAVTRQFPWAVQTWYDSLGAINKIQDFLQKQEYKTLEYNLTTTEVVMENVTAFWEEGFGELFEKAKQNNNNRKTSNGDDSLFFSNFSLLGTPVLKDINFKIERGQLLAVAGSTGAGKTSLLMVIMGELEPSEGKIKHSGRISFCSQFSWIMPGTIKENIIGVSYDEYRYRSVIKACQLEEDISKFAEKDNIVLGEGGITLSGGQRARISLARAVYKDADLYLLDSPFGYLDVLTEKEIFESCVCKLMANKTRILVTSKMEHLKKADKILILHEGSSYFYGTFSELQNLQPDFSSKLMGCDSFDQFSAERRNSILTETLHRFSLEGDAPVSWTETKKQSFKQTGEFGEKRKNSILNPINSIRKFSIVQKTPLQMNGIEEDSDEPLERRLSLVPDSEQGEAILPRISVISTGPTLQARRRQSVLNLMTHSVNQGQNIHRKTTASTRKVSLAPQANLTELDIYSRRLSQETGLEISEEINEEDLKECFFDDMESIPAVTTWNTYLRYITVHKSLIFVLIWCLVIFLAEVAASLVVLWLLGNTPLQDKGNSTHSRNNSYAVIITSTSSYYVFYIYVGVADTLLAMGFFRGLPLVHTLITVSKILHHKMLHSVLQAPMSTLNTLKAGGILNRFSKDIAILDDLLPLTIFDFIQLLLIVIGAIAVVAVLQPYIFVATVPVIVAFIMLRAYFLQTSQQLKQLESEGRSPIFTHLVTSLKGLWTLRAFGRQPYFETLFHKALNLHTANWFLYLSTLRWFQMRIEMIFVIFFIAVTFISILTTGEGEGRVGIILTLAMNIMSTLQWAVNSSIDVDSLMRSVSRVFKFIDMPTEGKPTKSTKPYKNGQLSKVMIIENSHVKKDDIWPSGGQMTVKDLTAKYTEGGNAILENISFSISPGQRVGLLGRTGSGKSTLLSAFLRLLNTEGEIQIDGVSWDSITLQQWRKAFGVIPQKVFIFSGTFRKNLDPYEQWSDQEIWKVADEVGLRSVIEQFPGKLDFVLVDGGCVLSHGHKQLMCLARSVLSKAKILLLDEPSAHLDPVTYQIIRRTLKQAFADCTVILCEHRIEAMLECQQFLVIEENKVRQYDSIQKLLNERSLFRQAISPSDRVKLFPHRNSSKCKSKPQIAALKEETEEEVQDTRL

Row | Compound | EC30
1 | CC(C)c1ccccc1Oc1nc(C(C)(C)C)ccc1C(=O)NS(=O)(=O)c1cccc(N)n1 [Compound 1031, N-[(6-amino-2-pyridyl)sulfonyl]-6-tert-butyl-2-(2-isopropylphenoxy)pyridine-3-carboxamide] | +++ (“+++” means <3 uM)
2 | Cc1ccc(-c2ccc(C(=O)NS(=O)(=O)c3cc[nH]n3)c(NCC3(C)CCOCC3)n2)cc1 [Compound 879, 2-[(4-methyltetrahydropyran-4-yl)methylamino]-6-(p-tolyl)-N-(1H-pyrazol-3-ylsulfonyl)pyridine-3-carboxamide] | + (“+” means greater than 10 uM)
3 | COc1c(F)cccc1-c1ccc(C(=O)NS(=O)(=O)c2ccc[nH]c2=O)c(N2C[C@@H](C)CC2(C)C)n1 [Compound 1779, 6-(3-fluoro-2-methoxy-phenyl)-N-[(2-oxo-1H-pyridin-3-yl)sulfonyl]-2-[(4S)-2,2,4-trimethylpyrrolidin-1-yl]pyridine-3-carboxamide] | +++ (“+++” means <3 uM)
4 | CC1CN(c2ncccc2C(=O)NS(=O)(=O)c2cccc(Nc3cc(F)c(F)cc3F)n2)C(C)(C)C1 (stereo not shown) [Compound 1796, N—[[6-(2,4,5-trifluoroanilino)-2-pyridyl]sulfonyl]-2-(2,2,4-trimethylpyrrolidin-1-yl)pyridine-3-carboxamide] | +++ (“+++” means <3 uM)
5 | CC1CN(c2ncccc2C(=O)NS(=O)(=O)c2cccc(Oc3ccc(F)c(Cl)c3)n2)C(C)(C)C1 (stereo not shown) [Compound 1831, N—[[6-(3-chloro-4-fluoro-phenoxy)-2-pyridyl]sulfonyl]-2-(2,2,4-trimethylpyrrolidin-1-yl)pyridine-3-carboxamide] | +++ (“+++” means <3 uM)
6 | CC(C)COc1cc(F)cc(-c2ccc(C(=O)NS(=O)(=O)N3CCC[C@H](N)C3)c(N3C[C@@H](C)CC3(C)C)n2)c1 [Compound 1435, N—[[(3S)-3-amino-1-piperidyl]sulfonyl]-6-(3-fluoro-5-isobutoxy-phenyl)-2-[(4S)-2,2,4-trimethylpyrrolidin-1-yl]pyridine-3-carboxamide] | +++ (“+++” means <3 uM)
7 | CCOCCOc1cc(-c2ccc(C(=O)NS(=O)(=O)c3cccc(N)n3)c(N3C[C@@H](C)CC3(C)C)n2)cc(C)n1 [Compound 1948, N-[(6-amino-2-pyridyl)sulfonyl]-6-[2-(2-ethoxyethoxy)-6-methyl-4-pyridyl]-2-[(4S)-2,2,4-trimethylpyrrolidin-1-yl]pyridine-3-carboxamide] | +++ (“+++” means <3 uM)
8 | CNC1CCN(S(=O)(=O)NC(=O)c2ccc(-c3cc(F)cc(OCC(C)C)c3)nc2N2CC(C)CC2(C)C)C1 (stereo not shown) [Compound 1554, 6-(3-fluoro-5-isobutoxy-phenyl)-N—[3-(methylamino)pyrrolidin-1-yl]sulfonyl-2-(2,2,4-trimethylpyrrolidin-1-yl)pyridine-3-carboxamide] | +++ (“+++” means <3 uM)
9 | Cc1cc(C)c(Oc2nc(OC(C)(C)C)ccc2C(=O)NS(=O)(=O)c2cccc(N)n2)c(C)c1 [Compound 1070, N-[(6-amino-2-pyridyl)sulfonyl]-6-tert-butoxy-2-(2,4,6-trimethylphenoxy)pyridine-3-carboxamide] | +++ (“+++” means <3 uM)
10 | CC(C)COc1ccc(-c2ccc(C(=O)NS(=O)(=O)c3ccc[nH]c3=O)c(N3[C@H](C)CC[C@@H]3C)n2)cc1 [Compound 891, 2-[(2S,5R)-2,5-dimethylpyrrolidin-1-yl]-6-(4-isobutoxyphenyl)-N-[(2-oxo-1H-pyridin-3-yl)sulfonyl]pyridine-3-carboxamide] | +++ (“+++” means <3 uM)
11 | CC(C)COc1cc(F)cc(-c2ccc(C(=O)NS(=O)(=O)c3cccc(N)n3)c(OCCC(C)c3ccccc3)n2)c1 (stereo not shown) [Compound 1689, N-[(6-amino-2-pyridyl)sulfonyl]-6-(3-fluoro-5-isobutoxy-phenyl)-2-(3-phenylbutoxy)pyridine-3-carboxamide] | +++ (“+++” means <3 uM)
12 | CC(C)Oc1ccc(-c2ccc(C(=O)NS(=O)(=O)c3cccc(N)n3)c(N3CCCC34CCC4)n2)cn1 [Compound 987, N-[(6-amino-2-pyridyl)sulfonyl]-2-(8-azaspiro[3.4]octan-8-yl)-6-(6-isopropoxy-3-pyridyl)pyridine-3-carboxamide] | +++ (“+++” means <3 uM)
13 | CC(C)Oc1ccc(-c2ccc(C(=O)NS(=O)(=O)c3cccc(N)n3)c(N3CCC[C@H]3C(F)(F)F)n2)cn1 [Compound 1248, N-[(6-amino-2-pyridyl)sulfonyl]-6-(6-isopropoxy-3-pyridyl)-2-[(2S)-2-(trifluoromethyl)pyrrolidin-1-yl]pyridine-3-carboxamide] | +++ (“+++” means <3 uM)
14 | CC(C)COc1cc(F)cc(-c2ccc(C(=O)NS(=O)(=O)c3cccc(N)n3)c(OCCCCc3ccncc3)n2)c1 [Compound 1687, N-[(6-amino-2-pyridyl)sulfonyl]-6-(3-fluoro-5-isobutoxy-phenyl)-2-[4-(4-pyridyl)butoxy]pyridine-3-carboxamide] | +++ (“+++” means <3 uM)
15 | COc1ccc(F)c(-c2ccc(C(=O)NS(=O)(=O)c3cccc(N)n3)c(Oc3c(C)cc(C)cc3C)n2)c1 [Compound 1178, N-[(6-amino-2-pyridyl)sulfonyl]-6-(2-fluoro-5-methoxy-phenyl)-2-(2,4,6-trimethylphenoxy)pyridine-3-carboxamide] | +++ (“+++” means <3 uM)
16 | Cc1cc(C)c(Oc2nc(-c3ccc(O)cc3C)ccc2C(=O)NS(=O)(=O)c2cccc(N)n2)c(C)c1 [Compound 1204, N-[(6-amino-2-pyridyl)sulfonyl]-6-(4-hydroxy-2-methyl-phenyl)-2-(2,4,6-trimethylphenoxy)pyridine-3-carboxamide] | + (“+” means greater than 10 uM)
17 | CCC(Oc1nc(C(C)(C)C)ccc1C(=O)NS(=O)(=O)c1cccc(N)n1)c1ccccc1 (stereo not shown) [Compound 1045, N-[(6-amino-2-pyridyl)sulfonyl]-6-tert-butyl-2-(1-phenylpropoxy)pyridine-3-carboxamide] | ++ (“++” means between 3 uM and 10 uM)
18 | CC(C)Oc1ccc(-c2ccc(C(=O)NS(=O)(=O)c3cccc(N)n3)c(N3CCC(Oc4ccccc4)C3)n2)cn1 (stereo not shown) [Compound 1092, N-[(6-amino-2-pyridyl)sulfonyl]-6-(6-isopropoxy-3-pyridyl)-2-(3-phenoxypyrrolidin-1-yl)pyridine-3-carboxamide] | ++ (“++” means between 3 uM and 10 uM)
19 | C[C@@H]1CN(c2nc(N3C[C@@H](C)CC3(C)C)c(C(=O)NS(=O)(=O)c3cccc(N)n3)cc2F)C(C)(C)C1 [Compound 1673, N-[(6-amino-2-pyridyl)sulfonyl]-5-fluoro-2,6-bis[(4S)-2,2,4-trimethylpyrrolidin-1-yl]pyridine-3-carboxamide] | +++ (“+++” means <3 uM)
20 | CC(C)[C@H](C)Nc1ccc(-c2ccc(C(=O)NS(=O)(=O)c3cccc(N)n3)c(N3[C@H](C)CC[C@@H]3C)n2)cn1 [Compound 1399, N-[(6-amino-2-pyridyl)sulfonyl]-6-[6-[[(1 S)-1,2-dimethylpropyl]amino]-3-pyridyl]-2-[(2S,5R)-2,5-dimethylpyrrolidin-1-yl]pyridine-3-carboxamide] | +++ (“+++” means <3 uM)
21 | CCCCOc1cccc(-c2ccc(C(=O)NS(=O)(=O)c3ccc[nH]c3=O)c(Oc3c(C)cc(C)cc3C)n2)c1Cl [Compound 964, 6-(3-butoxy-2-chloro-phenyl)-N-[(2-oxo-1H-pyridin-3-yl)sulfonyl]-2-(2,4,6-trimethylphenoxy)pyridine-3-carboxamide] | +++ (“+++” means <3 uM)
22 | CC(C)(C)c1ccc(C(=O)NS(=O)(=O)c2cccc(N)n2)c(Oc2ccccc2)n1 [Compound 1046, N-[(6-amino-2-pyridyl)sulfonyl]-6-tert-butyl-2-phenoxy-pyridine-3-carboxamide] | ++ (“++” means between 3 uM and 10 uM)
23 | Cc1cc(C)c(Oc2nc(C3CCCCC3)ccc2C(=O)NS(=O)(=O)c2cccc(N)n2)c(C)c1 [Compound 1131, N-[(6-amino-2-pyridyl)sulfonyl]-6-cyclohexyl-2-(2,4,6-trimethylphenoxy)pyridine-3-carboxamide] | +++ (“+++” means <3 uM)
24 | CC(C)COc1cc(F)cc(-c2ccc(C(=O)NS(=O)(=O)c3ccccn3)c(N3CCC(C)(C)CC3)n2)c1 [Compound 1069, 2-(4,4-dimethyl-1-piperidyl)-6-(3-fluoro-5-isobutoxy-phenyl)-N-(2-pyridylsulfonyl)pyridine-3-carboxamide] | +++ (“+++” means <3 uM)
25 | CC(C)Oc1ccc(-c2ccc(C(=O)NS(=O)(=O)c3cccc(N)n3)c(N3C[C@@H](C)C[C@H](C)C3)n2)cn1 [Compound 1136, N-[(6-amino-2-pyridyl)sulfonyl]-2-[(3S,5S)-3,5-dimethyl-1-piperidyl]-6-(6-isopropoxy-3-pyridyl)pyridine-3-carboxamide] | +++ (“+++” means <3 uM)
